The source of these data is BindingDB's records for doi:10.1016/s0028-3908(97)00049-x (Roche Bioscience, 1997).

Test [1] deals with Muscarinic acetylcholine receptor M3 (Rattus norvegicus, UniProt P08483).
Test [2] deals with Glutamate receptor 3 (Rattus norvegicus, UniProt P19492).
Test [3] concerns the target T1, 5-hydroxytryptamine receptor 3A (Mus musculus, UniProt P23979).
T1 sequence (P23979 whole entry): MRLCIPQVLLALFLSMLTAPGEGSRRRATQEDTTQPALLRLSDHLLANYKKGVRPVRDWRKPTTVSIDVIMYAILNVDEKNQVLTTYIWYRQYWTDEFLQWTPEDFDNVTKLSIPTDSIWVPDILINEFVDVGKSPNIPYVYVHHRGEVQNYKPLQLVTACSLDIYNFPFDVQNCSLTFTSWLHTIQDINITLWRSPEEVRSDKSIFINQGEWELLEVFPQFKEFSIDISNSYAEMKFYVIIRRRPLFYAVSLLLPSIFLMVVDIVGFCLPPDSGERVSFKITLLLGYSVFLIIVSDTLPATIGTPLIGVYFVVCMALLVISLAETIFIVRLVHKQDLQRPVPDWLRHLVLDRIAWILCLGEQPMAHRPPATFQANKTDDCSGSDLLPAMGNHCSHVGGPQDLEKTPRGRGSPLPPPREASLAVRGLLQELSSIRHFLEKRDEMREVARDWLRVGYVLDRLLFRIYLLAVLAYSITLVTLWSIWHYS

Test [4] deals with T2, Alpha-2B adrenergic receptor (Rattus norvegicus, UniProt P19328).
T2 sequence (P19328 whole entry): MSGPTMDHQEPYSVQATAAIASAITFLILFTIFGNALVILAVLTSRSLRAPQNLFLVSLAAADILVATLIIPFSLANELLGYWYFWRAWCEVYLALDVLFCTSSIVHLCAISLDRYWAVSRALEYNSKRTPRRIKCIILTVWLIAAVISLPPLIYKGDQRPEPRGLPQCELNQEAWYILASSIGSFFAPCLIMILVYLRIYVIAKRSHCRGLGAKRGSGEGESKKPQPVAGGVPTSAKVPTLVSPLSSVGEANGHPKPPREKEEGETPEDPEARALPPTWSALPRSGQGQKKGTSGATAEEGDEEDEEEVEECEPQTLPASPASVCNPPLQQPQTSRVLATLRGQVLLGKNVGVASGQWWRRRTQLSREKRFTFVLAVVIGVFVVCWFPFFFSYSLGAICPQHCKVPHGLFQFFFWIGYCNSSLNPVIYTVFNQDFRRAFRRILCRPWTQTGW

Test [5] deals with Substance-P receptor (Homo sapiens, UniProt P25103).
Sequence of Substance-P receptor (P25103 whole entry): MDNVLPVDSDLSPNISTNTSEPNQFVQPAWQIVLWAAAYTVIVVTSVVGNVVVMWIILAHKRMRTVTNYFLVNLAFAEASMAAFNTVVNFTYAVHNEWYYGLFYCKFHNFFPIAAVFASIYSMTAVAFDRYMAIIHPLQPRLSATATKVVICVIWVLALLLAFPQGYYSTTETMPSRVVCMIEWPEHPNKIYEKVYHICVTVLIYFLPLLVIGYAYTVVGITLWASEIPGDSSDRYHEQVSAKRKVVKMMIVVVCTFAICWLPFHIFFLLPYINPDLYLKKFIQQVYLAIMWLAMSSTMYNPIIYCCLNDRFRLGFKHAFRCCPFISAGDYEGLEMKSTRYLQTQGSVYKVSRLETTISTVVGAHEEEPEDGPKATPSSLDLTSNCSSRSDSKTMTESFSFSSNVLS
Test [6] has as its target T3, Beta-1 adrenergic receptor (Oryctolagus cuniculus, UniProt A0A4Y6F0G0).
T3 sequence (A0A4Y6F0G0 whole entry): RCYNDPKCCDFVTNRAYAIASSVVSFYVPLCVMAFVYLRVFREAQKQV

For test [7], the target named is T4, Alpha-2A adrenergic receptor (Oryctolagus cuniculus, UniProt Q5ZQK3).
T4 sequence (Q5ZQK3 whole entry): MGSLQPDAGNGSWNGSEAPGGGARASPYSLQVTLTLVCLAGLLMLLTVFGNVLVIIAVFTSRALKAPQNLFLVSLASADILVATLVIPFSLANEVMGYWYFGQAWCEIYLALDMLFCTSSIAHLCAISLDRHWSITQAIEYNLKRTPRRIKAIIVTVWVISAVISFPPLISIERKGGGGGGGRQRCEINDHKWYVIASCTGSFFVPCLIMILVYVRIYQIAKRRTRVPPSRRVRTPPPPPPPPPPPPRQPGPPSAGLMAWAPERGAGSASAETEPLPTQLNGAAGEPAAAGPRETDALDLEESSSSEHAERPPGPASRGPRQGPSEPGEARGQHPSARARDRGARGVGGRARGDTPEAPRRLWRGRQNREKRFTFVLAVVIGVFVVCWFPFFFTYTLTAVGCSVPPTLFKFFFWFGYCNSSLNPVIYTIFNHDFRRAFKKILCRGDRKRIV

Test [8] addresses Beta-2 adrenergic receptor (Rattus norvegicus, UniProt P10608).
In test [9] the target is T5, 5-hydroxytryptamine receptor 1A (Rattus norvegicus, UniProt P19327).
T5 sequence (P19327 whole entry): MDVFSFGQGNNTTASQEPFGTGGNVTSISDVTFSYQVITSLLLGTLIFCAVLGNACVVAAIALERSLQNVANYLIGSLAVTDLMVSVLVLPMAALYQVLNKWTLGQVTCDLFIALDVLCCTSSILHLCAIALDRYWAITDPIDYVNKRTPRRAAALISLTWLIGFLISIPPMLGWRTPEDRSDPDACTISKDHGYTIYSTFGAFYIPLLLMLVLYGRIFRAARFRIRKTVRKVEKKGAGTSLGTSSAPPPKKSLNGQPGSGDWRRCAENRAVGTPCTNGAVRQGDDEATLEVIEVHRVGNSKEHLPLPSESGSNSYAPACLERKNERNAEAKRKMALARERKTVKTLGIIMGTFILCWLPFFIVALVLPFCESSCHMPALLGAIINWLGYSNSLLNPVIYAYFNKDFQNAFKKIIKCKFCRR

Test [10] deals with Gamma-aminobutyric acid receptor subunit alpha-1 (Rattus norvegicus, UniProt P62813).
Sequence of Gamma-aminobutyric acid receptor subunit alpha-1 (P62813 whole entry): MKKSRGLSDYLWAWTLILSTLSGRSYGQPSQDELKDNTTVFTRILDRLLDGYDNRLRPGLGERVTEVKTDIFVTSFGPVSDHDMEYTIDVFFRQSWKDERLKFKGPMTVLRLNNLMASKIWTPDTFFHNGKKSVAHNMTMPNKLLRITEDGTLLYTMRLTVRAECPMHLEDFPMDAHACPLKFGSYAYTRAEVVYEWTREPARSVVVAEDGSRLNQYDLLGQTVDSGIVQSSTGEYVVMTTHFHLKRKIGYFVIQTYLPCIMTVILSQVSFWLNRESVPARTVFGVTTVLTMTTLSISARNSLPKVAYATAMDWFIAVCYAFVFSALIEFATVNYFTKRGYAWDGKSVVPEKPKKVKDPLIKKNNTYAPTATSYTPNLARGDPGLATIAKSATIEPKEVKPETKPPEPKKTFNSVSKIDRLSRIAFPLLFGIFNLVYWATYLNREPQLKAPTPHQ
The target of test [11] is T6, Muscarinic acetylcholine receptor M1 (Rattus norvegicus, UniProt P08482).
T6 sequence (P08482 whole entry): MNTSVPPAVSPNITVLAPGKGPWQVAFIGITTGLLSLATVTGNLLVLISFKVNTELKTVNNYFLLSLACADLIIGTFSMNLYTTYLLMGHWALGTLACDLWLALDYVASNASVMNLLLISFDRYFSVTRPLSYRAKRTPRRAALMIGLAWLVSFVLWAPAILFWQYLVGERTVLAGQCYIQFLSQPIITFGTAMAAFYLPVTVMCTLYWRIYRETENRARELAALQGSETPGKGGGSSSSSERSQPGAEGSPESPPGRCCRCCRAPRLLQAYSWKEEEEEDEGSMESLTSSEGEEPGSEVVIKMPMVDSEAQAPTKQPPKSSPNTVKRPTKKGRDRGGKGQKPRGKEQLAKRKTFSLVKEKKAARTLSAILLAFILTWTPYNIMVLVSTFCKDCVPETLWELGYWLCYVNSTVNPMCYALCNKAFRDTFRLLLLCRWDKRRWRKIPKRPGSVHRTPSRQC

The target in test [12] is T7, Alpha-1B adrenergic receptor (Rattus norvegicus, UniProt P15823).
T7 sequence (P15823 whole entry): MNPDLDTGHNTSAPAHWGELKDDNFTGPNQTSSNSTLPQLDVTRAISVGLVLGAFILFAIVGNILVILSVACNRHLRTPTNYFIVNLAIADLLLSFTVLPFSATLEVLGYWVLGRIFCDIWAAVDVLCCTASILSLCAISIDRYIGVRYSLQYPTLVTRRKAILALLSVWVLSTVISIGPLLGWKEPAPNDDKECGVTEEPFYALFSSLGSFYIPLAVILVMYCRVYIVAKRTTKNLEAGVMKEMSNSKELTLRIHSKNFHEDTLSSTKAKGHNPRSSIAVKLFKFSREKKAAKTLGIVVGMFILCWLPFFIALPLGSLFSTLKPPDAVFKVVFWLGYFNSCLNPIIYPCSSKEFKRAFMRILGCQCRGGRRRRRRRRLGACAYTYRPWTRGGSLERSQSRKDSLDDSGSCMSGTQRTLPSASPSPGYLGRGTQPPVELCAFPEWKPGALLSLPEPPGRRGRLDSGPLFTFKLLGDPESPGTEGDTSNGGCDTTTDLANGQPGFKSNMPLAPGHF

For test [13], the target named is T8, Muscarinic acetylcholine receptor M2 (Rattus norvegicus, UniProt P10980).
T8 sequence (P10980 whole entry): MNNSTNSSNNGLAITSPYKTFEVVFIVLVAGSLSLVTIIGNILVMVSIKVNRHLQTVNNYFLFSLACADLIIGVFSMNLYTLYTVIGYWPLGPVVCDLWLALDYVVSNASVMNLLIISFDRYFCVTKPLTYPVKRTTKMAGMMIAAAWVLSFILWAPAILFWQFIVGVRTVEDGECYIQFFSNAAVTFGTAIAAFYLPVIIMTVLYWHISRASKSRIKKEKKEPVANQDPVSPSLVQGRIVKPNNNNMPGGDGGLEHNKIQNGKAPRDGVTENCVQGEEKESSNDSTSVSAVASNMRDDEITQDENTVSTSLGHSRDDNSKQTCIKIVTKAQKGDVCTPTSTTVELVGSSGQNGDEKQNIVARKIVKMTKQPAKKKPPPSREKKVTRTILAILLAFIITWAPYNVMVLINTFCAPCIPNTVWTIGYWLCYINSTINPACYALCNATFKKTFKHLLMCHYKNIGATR

The target of test [14] is 5-hydroxytryptamine receptor 7 (Cavia porcellus, UniProt P50407).
Sequence of 5-hydroxytryptamine receptor 7 (P50407 whole entry): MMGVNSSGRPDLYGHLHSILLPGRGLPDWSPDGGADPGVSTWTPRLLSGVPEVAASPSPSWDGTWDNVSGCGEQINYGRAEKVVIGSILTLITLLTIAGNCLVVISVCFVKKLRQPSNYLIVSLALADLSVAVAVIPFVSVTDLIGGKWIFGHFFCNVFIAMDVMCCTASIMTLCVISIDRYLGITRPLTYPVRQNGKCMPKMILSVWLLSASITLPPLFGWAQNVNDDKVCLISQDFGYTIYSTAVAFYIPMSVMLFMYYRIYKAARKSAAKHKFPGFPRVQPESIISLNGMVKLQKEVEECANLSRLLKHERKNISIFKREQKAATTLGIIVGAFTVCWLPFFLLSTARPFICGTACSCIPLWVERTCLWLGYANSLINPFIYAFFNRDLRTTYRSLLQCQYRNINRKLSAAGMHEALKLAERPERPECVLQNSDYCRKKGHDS
In test [15] the target is Glutamate receptor ionotropic, NMDA 1 (Rattus norvegicus, UniProt P35439).
In test [16] the target is Kappa-type opioid receptor (Cavia porcellus, UniProt P41144).
Sequence of Kappa-type opioid receptor (P41144 whole entry): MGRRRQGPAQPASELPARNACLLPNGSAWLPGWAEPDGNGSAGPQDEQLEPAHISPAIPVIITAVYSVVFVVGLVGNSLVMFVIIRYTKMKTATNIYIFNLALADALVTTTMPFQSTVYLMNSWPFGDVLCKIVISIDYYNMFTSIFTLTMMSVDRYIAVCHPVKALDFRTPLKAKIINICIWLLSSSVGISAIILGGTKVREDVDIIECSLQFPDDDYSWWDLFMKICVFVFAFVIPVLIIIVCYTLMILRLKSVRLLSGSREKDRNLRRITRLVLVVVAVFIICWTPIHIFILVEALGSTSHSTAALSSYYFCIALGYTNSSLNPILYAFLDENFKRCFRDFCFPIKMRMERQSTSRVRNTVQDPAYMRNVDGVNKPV
The target in test [17] is Mu-type opioid receptor (Cavia porcellus, UniProt P97266).
Sequence of Mu-type opioid receptor (P97266 whole entry): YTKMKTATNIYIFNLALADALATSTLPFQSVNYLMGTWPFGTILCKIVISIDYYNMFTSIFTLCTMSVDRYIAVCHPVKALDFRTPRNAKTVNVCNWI

Structures are written as SMILES. pKi: −log10 of the molar value.

Sequence of Muscarinic acetylcholine receptor M3 (P08483 whole entry): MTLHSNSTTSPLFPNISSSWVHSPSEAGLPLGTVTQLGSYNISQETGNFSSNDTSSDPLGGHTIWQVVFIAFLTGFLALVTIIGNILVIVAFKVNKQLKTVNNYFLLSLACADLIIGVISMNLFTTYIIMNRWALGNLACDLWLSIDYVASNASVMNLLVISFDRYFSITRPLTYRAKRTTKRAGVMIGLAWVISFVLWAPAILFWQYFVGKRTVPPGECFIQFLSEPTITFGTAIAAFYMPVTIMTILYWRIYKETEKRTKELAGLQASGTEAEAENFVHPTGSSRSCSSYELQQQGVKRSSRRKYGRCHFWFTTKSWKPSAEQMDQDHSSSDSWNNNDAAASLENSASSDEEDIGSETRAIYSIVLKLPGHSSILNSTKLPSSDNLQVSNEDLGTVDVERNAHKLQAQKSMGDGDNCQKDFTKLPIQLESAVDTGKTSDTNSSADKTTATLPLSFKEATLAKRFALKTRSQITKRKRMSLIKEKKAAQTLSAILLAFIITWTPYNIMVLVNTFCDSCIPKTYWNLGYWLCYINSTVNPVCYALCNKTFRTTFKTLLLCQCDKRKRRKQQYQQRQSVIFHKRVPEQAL
Sequence of Beta-2 adrenergic receptor (P10608 whole entry): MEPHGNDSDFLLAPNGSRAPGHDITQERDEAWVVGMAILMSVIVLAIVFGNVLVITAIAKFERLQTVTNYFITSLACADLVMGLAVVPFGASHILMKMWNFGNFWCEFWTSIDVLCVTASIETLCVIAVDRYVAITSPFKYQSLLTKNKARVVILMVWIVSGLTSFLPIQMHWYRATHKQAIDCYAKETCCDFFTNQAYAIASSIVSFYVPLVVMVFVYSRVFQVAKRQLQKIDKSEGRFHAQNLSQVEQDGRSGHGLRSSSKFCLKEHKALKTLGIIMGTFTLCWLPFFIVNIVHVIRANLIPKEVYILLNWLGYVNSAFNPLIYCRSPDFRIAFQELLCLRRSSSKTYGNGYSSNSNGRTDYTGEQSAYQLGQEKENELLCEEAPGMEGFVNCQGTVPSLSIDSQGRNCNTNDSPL
Sequence of Glutamate receptor 3 (P19492 whole entry): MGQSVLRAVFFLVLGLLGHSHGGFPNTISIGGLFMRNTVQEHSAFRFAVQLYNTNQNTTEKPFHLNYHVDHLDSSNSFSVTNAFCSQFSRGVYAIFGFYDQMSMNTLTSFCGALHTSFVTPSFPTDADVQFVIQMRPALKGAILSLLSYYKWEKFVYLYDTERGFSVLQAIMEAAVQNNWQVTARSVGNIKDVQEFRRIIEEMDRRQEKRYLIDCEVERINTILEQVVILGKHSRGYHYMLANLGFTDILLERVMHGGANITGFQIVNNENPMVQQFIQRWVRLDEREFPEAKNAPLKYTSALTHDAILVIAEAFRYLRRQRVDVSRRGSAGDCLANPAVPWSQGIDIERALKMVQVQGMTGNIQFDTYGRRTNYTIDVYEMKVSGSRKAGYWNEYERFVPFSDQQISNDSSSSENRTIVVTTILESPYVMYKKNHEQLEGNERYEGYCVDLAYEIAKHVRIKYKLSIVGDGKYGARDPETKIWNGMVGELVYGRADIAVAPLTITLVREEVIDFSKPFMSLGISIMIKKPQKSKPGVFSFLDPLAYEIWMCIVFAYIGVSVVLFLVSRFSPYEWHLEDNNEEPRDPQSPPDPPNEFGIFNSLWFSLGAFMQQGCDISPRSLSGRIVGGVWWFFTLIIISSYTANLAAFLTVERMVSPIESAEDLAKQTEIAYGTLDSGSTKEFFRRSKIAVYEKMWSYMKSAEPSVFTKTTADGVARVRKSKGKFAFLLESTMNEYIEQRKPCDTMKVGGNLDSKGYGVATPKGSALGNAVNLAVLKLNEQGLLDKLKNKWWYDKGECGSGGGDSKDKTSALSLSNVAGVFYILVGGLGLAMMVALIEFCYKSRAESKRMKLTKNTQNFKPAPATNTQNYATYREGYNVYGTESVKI

Consider `COc1cc(OC)c(C(=O)CCCCN2CCC3(CC2)NC(=O)NC3=O)cc1NS(=O)(=O)c1ccc(C(F)(F)F)cc1` [N-[5-[5-(2,4-Dioxo-1,3,8-triazaspiro[4.5]decan-8-yl)-1-oxopentyl]-2,4-dimethoxyphenyl]-4-(trifluoromethyl)benzenesulfonamide], for which the pKi in [1], in test [2], in [3], in test [4], in test [5] and in test [6] was below 5.00 throughout. Besides, the negative-log Ki (pKi) is 6.50 in [7]; below 5.00 in [8]; below 5.00 in test [9]; below 5.00 in test [10]; below 5.00 in test [11]; below 5.00 in test [12]. The pKi in test [13], in test [14], in test [15], in test [16] and in test [17] was below 5.00 in each case.

By pKi is commonly meant −log10 of the Ki, conventionally taken in molar units. Read a low pKi as a high Ki.
